In US5861393A, “Antithrombotic amidinophenylalanine and amidinopyridylalanine derivatives” (Pfizer Inc., priority 1993, dated 1999):
Where a name gives a salt, the structure may show the parent alone.

Assays:
Assay type in all cases: biochemical
bovine thrombin = bovine thrombin (Bos taurus, UniProt P00735); assay: Chromogenic assay, inhibition of thrombin; conditions: in vitro; substrate S2238; pH 8.0; 30 minutes at 30° C.
Description: (§1) The inhibition of thrombin, trypsin, plasmin or factor Xa is measured in 96 well plate chromogenic assays. The percentage inhibition and IC50 are calculated from triplicate samples of an 8 concentration dose-response curve. From the substrate Km and IC50, the Ki for each inhibitor is calculated. All assays are carried out in a total incubation of 200 μl of 50 mM HEPES and 150 mM NaCl at pH 8.0, and all compound dilutions are preincubated with enzyme at room temperature for 15 minutes prior to addition of substrate. After 30 minutes incubation at 30° C., the O.D. is measured at […] in a 96 well plate reader. Thrombin activity is measured using bovine thrombin and S2238 (H-D-Phe-Pip-Arg-pNA), bovine pancreatic trypsin is assayed with S2222 (Benz-Isoleu-Glu-Gly-Arg-pNA), bovine plasma plasmin is assayed with Chromozym PL (Tosyl-Gly-Pro-Lys-pNA)and bovine factor Xa is assayed in 50 mM Tris,150mM NaCl,pH 7.5 buffer with S2222.

[1] = target: T1, bovine pancreatic trypsin (Bos taurus, UniProt P00760); assay: Chromogenic assay, inhibition of trypsin; conditions: in vitro; substrate S2222; pH 8.0; 30 minutes at 30° C.
T1 construct: from tissue; host or cells: bovine pancreas
T1 sequence (P00760 24-246): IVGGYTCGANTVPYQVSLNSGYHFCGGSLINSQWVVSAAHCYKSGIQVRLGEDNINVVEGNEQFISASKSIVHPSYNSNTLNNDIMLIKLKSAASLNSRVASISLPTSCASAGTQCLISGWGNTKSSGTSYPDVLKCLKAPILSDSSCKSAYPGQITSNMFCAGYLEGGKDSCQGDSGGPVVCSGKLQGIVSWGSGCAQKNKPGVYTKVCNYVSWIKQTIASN
Description: as §1

bovine plasma plasmin = target: T2, bovine plasma plasmin (Bos taurus, UniProt P06868); assay: Chromogenic assay, inhibition of plasmin; conditions: in vitro; substrate Chromozym PL; pH 8.0; 30 minutes at 30° C.
T2 construct: from tissue; host or cells: bovine plasma
Description: as §1

T2 sequence (P06868 584-812 limits assumed): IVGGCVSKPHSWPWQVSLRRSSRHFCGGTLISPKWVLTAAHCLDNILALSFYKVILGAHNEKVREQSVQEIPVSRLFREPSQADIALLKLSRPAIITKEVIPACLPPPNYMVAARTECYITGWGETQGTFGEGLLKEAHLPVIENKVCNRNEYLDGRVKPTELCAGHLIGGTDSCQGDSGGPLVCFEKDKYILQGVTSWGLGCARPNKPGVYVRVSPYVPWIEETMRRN
T2 sequence (P06868 105-583 partner limits assumed): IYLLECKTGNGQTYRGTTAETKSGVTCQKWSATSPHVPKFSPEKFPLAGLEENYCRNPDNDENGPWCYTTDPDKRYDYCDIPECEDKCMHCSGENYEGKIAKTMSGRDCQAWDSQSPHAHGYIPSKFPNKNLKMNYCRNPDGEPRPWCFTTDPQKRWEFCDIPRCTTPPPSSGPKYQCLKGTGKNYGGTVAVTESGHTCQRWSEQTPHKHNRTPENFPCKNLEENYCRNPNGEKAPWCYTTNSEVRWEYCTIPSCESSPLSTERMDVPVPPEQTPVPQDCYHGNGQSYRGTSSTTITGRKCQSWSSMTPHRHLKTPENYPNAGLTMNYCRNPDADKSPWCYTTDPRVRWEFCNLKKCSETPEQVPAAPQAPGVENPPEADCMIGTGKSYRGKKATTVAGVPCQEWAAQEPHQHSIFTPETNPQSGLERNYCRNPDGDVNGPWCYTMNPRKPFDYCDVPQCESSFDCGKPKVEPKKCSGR

| SMILES | Ki (bovine thrombin) [nM] | Ki [1] [nM] | Ki (bovine plasma plasmin) [nM] |
| --- | --- | --- | --- |
| CC1=CCN(C(=O)[C@H](Cc2cccc(C(=N)N)c2)NS(=O)(=O)c2ccc3c(c2)C(CC(=O)N(C)C)N(C)CC3)[C@@H](C(=O)O)C1 (stereo partly drawn) [Example 5, 1-{N-[1(R,S)-(N,N-Dimethylcarbamoylmethyl)-2-methyl-1,2,3,4-tetrahydroisoquinoline-7-sulphonyl]-3-amidino-(S)-phenylalanyl}-4-methyl-1 2,3,6-tetrahydropyridine-2(R-carboxylic acid dihydrochloride] | 2.2 | 54 | 6000 |
| CC1=CCN(C(=O)[C@H](Cc2cccc(C(=N)N)c2)NS(=O)(=O)c2ccc3c(c2)CN(Cc2ccccc2)CC3)[C@@H](C(=O)O)C1 [Example 10, 1-[N-(2-Benzyl-1,2,3,4-tetrahydroisoquinoline-7-sulphonyl)-3-amidino-(S)-phenylalanyl]-4-methyl-1,2,3,6-tetrahydropyridine-2(R)-carboxylic acid dihydrochloride] | 1 | 48 | 180 |
| C[C@@H]1CCN(C(=O)C(Cc2cccc(C(=N)N)c2)NS(=O)(=O)c2ccc3c(c2)CN(C)CC3)[C@@H](C(=O)O)C1 (stereo partly drawn) [Example 13, 4(R)-Methyl-1-[N-(2-methyl-1,2,3,4-tetrahydroisoquinoline-7-sulphonyl)-3-amidino-(R,S)-phenylalanyl]piperidine-2(R)-carboxylic acid dihydrochloride] | 4 | 49 | 12000 |

Second part, the molecule after the results:

| Ki (bovine thrombin) [nM] | Ki [1] [nM] | Ki (bovine plasma plasmin) [nM] | SMILES |
| --- | --- | --- | --- |
| 3.9 | 57 | 6100 | CC1=CCN(C(=O)[C@H](Cc2cccc(C(=N)N)c2)NS(=O)(=O)c2ccc3c(c2)CCN(C)C3)[C@@H](C(=O)O)C1 [Example 2, 4-Methyl-1-[N-(2-methyl-1,2,3,4-tetrahydroisoquinoline-6-sulphonyl)-3-amidino-(S)-phenylalanyl]-1,2,3,6-tetrahydropyridine-2(R)-carboxylic acid dihydrochloride] |
| 6.4 | 40 | 1800 | CC1=CCN(C(=O)[C@H](Cc2cccc(C(=N)N)c2)NS(=O)(=O)c2ccc3c(c2)CCN(C(C)C)CC3)[C@@H](C(=O)O)C1 [Example 8, 4-Methyl-1-{N-[3-(2-propyl]-2,3,4,5-tetrahydro-1H-3-benzazepine-7-sulphonyl-3-amidino-(S)-phenylalanyl}-1,2,3,6-tetrahydropyridine-2(R)-carboxylic acid dihydrochloride] |
| 78 | 320 | 14000 | CC1=CCN(C(=O)[C@H](Cc2cccc(C(=N)N)c2)NS(=O)(=O)c2ccc3c(c2)CNCC3)C(C(=O)O)C1 (stereo partly drawn) [Example 15, 4-Methyl-1-[N-(1,2,3,4-tetrahydroisoquinoline-7-sulphonyl)-3-amidino-(S)-phenylalanvl]-1,2,3,6-tetrahydropyridine-2(R,S)-carboxylic acid dihydrochloride] |
